# Source: ChEMBL document CHEMBL1201862, “PubChem BioAssay data set” (2004)
#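 All cell lines were grown in 96-well plates and treated with compound for 48 hours. Abbreviation: GI50, concentration required for 50% inhibition of growth.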 The source made the active and inactive calls. No stated cut-off is given here; in the data, active = GI50 up to about 1.1 µM and inactive = higher.
# Columns and labels:
# Test in all cases: DTP human tumour cell line panel, 48 h
# 786-0 = system: 786-0
# A498 = system: A498
# A549 = system: A549
# ACHN = system: ACHN
# BT-549 = system: BT-549
# CAKI-1 = system: CAKI-1
# CCRF-CEM = system: CCRF-CEM
# COLO 205 = system: COLO 205
# DU-145 = system: DU-145
# EKVX = system: EKVX
# HCC 2998 = system: HCC 2998
# HCT-116 = system: HCT-116
# HCT-15 = system: HCT-15
# HL-60 = system: HL-60
# HOP-62 = system: HOP-62
# HOP-92 = system: HOP-92
# HT-29 = system: HT-29
# Hs-578T = system: Hs-578T
# IGROV-1 = system: IGROV-1
# K562 = system: K562
# KM12 = system: KM12
# LOX IMVI = system: LOX IMVI
# M14 = system: M14
# MCF7 = system: MCF7
# MDA-MB-231 = system: MDA-MB-231
# MDA-MB-435 = system: MDA-MB-435
# MDA-N = system: MDA-N
# MOLT-4 = system: MOLT-4
# Malme-3M = system: Malme-3M
# NCI-H226 = system: NCI-H226
# NCI-H23 = system: NCI-H23
# NCI-H522 = system: NCI-H522
# NCI/ADR-RES = system: NCI/ADR-RES
# OVCAR-3 = system: OVCAR-3
# OVCAR-4 = system: OVCAR-4
# OVCAR-5 = system: OVCAR-5
# OVCAR-8 = system: OVCAR-8
# PC-3 = system: PC-3
# RPMI-8226 = system: RPMI-8226
# RXF 393 = system: RXF 393
# SF-268 = system: SF-268
# SF-295 = system: SF-295
# SK-MEL-28 = system: SK-MEL-28
# SK-MEL-2 = system: SK-MEL-2
# SK-MEL-5 = system: SK-MEL-5
# SK-OV-3 = system: SK-OV-3
# SN12C = system: SN12C
# SNB-75 = system: SNB-75
# SR = system: SR
# SW-620 = system: SW-620
# T47D = system: T47D
# TK-10 = system: TK-10
# U-251 = system: U-251
# UACC-257 = system: UACC-257
# UACC-62 = system: UACC-62
# UO-31 = system: UO-31
# NCI-H460 = system: NCI-H460
# SF-539 = system: SF-539
# SNB-19 = system: SNB-19
compound,measurement,setting,value
N#C/C(=C\c1ccccc1)C(=O)Nc1nnc(-c2ccccc2)o1,GI50,786-0,53 µM (inactive)
same,GI50,A498,27.3 µM (inactive)
same,GI50,A549,34.1 µM (inactive)
same,GI50,ACHN,35.6 µM (inactive)
same,GI50,BT-549,28.2 µM (inactive)
same,GI50,CAKI-1,28.1 µM (inactive)
same,GI50,CCRF-CEM,17.9 µM (inactive)
same,GI50,COLO 205,28.3 µM (inactive)
same,GI50,DU-145,50.4 µM (inactive)
same,GI50,EKVX,47.3 µM (inactive)
same,GI50,HCC 2998,63.1 µM (inactive)
same,GI50,HCT-116,33.3 µM (inactive)
same,GI50,HCT-15,26.9 µM
same,GI50,HL-60,20.7 µM (inactive)
same,GI50,HOP-62,37.6 µM (inactive)
same,GI50,HOP-92,47.9 µM (inactive)
same,GI50,HT-29,41.3 µM (inactive)
same,GI50,Hs-578T,> 100 µM (inactive)
same,GI50,IGROV-1,27.6 µM (inactive)
same,GI50,K562,26.4 µM (inactive)
same,GI50,KM12,41.8 µM (inactive)
same,GI50,LOX IMVI,37.5 µM (inactive)
same,GI50,M14,37.8 µM (inactive)
same,GI50,MCF7,50.9 µM (inactive)
same,GI50,MDA-MB-231,31.5 µM (inactive)
same,GI50,MDA-MB-435,37.8 µM (inactive)
same,GI50,MDA-N,35.4 µM (inactive)
same,GI50,MOLT-4,33.1 µM (inactive)
same,GI50,Malme-3M,31 µM (inactive)
same,GI50,NCI-H226,44.9 µM (inactive)
same,GI50,NCI-H23,39 µM (inactive)
same,GI50,NCI-H522,38 µM (inactive)
same,GI50,NCI/ADR-RES,29.6 µM (inactive)
same,GI50,OVCAR-3,14.8 µM (inactive)
same,GI50,OVCAR-4,32.4 µM (inactive)
same,GI50,OVCAR-5,82.6 µM (inactive)
same,GI50,OVCAR-8,36.1 µM (inactive)
same,GI50,PC-3,42.1 µM (inactive)
same,GI50,RPMI-8226,19.2 µM (inactive)
same,GI50,RXF 393,34 µM (inactive)
same,GI50,SF-268,47.2 µM (inactive)
same,GI50,SF-295,13.2 µM (inactive)
same,GI50,SK-MEL-28,39.9 µM (inactive)
same,GI50,SK-MEL-2,52.1 µM (inactive)
same,GI50,SK-MEL-5,19 µM (inactive)
same,GI50,SK-OV-3,31.8 µM (inactive)
same,GI50,SN12C,36.7 µM (inactive)
same,GI50,SNB-75,48.8 µM (inactive)
same,GI50,SR,25.6 µM (inactive)
same,GI50,SW-620,52.7 µM (inactive)
same,GI50,T47D,31.3 µM (inactive)
same,GI50,TK-10,> 100 µM (inactive)
same,GI50,U-251,37.4 µM (inactive)
same,GI50,UACC-257,25.7 µM (inactive)
same,GI50,UACC-62,22.3 µM (inactive)
same,GI50,UO-31,29.4 µM (inactive)
COc1ccc(C(SCCO)(c2ccc(OC)cc2)c2ccc(OC)cc2)cc1,GI50,786-0,14.2 µM (inactive)
same,GI50,A498,17.8 µM (inactive)
same,GI50,A549,17.7 µM (inactive)
same,GI50,ACHN,17.7 µM (inactive)
same,GI50,BT-549,16.1 µM (inactive)
same,GI50,CAKI-1,20.6 µM (inactive)
same,GI50,CCRF-CEM,7.23 µM (inactive)
same,GI50,COLO 205,11.2 µM (inactive)
same,GI50,DU-145,23.4 µM (inactive)
same,GI50,EKVX,10.7 µM (inactive)
same,GI50,HCC 2998,14.4 µM (inactive)
same,GI50,HCT-116,14.3 µM (inactive)
same,GI50,HCT-15,11.4 µM
same,GI50,HL-60,21 µM (inactive)
same,GI50,HOP-62,16.4 µM (inactive)
same,GI50,HOP-92,10.1 µM (inactive)
same,GI50,HT-29,17 µM (inactive)
same,GI50,Hs-578T,17.2 µM (inactive)
same,GI50,K562,3.19 µM (inactive)
same,GI50,KM12,15.3 µM (inactive)
same,GI50,LOX IMVI,14 µM (inactive)
same,GI50,M14,15.9 µM (inactive)
same,GI50,MCF7,14.8 µM (inactive)
same,GI50,MDA-MB-231,19.8 µM (inactive)
same,GI50,MDA-MB-435,5.79 µM (inactive)
same,GI50,MDA-N,4.9 µM (inactive)
same,GI50,MOLT-4,10.9 µM (inactive)
same,GI50,Malme-3M,17.6 µM (inactive)
same,GI50,NCI-H226,13.9 µM (inactive)
same,GI50,NCI-H23,17.7 µM (inactive)
same,GI50,NCI-H460,15 µM (inactive)
same,GI50,NCI-H522,12.4 µM (inactive)
same,GI50,NCI/ADR-RES,13.6 µM (inactive)
same,GI50,OVCAR-3,10.5 µM (inactive)
same,GI50,OVCAR-4,21.6 µM (inactive)
same,GI50,OVCAR-5,22.5 µM (inactive)
same,GI50,OVCAR-8,14.9 µM (inactive)
same,GI50,PC-3,13.8 µM (inactive)
same,GI50,RXF 393,12 µM (inactive)
same,GI50,SF-268,17.3 µM (inactive)
same,GI50,SF-295,12.4 µM (inactive)
same,GI50,SF-539,14.4 µM (inactive)
same,GI50,SK-MEL-28,17.9 µM (inactive)
same,GI50,SK-MEL-2,14.1 µM (inactive)
same,GI50,SK-MEL-5,12.2 µM (inactive)
same,GI50,SK-OV-3,29.1 µM (inactive)
same,GI50,SN12C,17.5 µM (inactive)
same,GI50,SNB-19,26.9 µM (inactive)
same,GI50,SNB-75,22 µM (inactive)
same,GI50,SR,3.4 µM (inactive)
same,GI50,SW-620,15 µM (inactive)
same,GI50,T47D,6.03 µM (inactive)
same,GI50,TK-10,21.8 µM (inactive)
same,GI50,U-251,10.6 µM (inactive)
same,GI50,UACC-257,13.5 µM (inactive)
same,GI50,UACC-62,14 µM (inactive)
same,GI50,UO-31,13 µM (inactive)
COc1c2occc2c(N)c2ccc(=O)oc12,GI50,786-0,> 100 µM (inactive)
same,GI50,A498,> 100 µM (inactive)
same,GI50,A549,> 100 µM (inactive)
same,GI50,ACHN,> 100 µM (inactive)
same,GI50,BT-549,> 100 µM (inactive)
same,GI50,CAKI-1,> 100 µM (inactive)
same,GI50,CCRF-CEM,93.5 µM (inactive)
same,GI50,COLO 205,> 100 µM (inactive)
same,GI50,DU-145,> 100 µM (inactive)
same,GI50,EKVX,51.9 µM (inactive)
same,GI50,HCC 2998,> 100 µM (inactive)
same,GI50,HCT-116,> 100 µM (inactive)
same,GI50,HCT-15,> 100 µM
same,GI50,HL-60,49.2 µM (inactive)
same,GI50,HOP-62,> 100 µM (inactive)
same,GI50,HOP-92,> 100 µM (inactive)
same,GI50,HT-29,> 100 µM (inactive)
same,GI50,Hs-578T,> 100 µM (inactive)
same,GI50,IGROV-1,> 100 µM (inactive)
same,GI50,K562,> 100 µM (inactive)
same,GI50,KM12,> 100 µM (inactive)
same,GI50,LOX IMVI,> 100 µM (inactive)
same,GI50,M14,> 100 µM (inactive)
same,GI50,MCF7,> 100 µM (inactive)
same,GI50,MDA-MB-231,> 100 µM (inactive)
same,GI50,MDA-MB-435,> 100 µM (inactive)
same,GI50,MDA-N,> 100 µM (inactive)
same,GI50,MOLT-4,> 100 µM (inactive)
same,GI50,Malme-3M,> 100 µM (inactive)
same,GI50,NCI-H226,29.5 µM (inactive)
same,GI50,NCI-H23,> 100 µM (inactive)
same,GI50,NCI-H460,> 100 µM (inactive)
same,GI50,NCI-H522,75 µM (inactive)
same,GI50,NCI/ADR-RES,> 100 µM (inactive)
same,GI50,OVCAR-3,> 100 µM (inactive)
same,GI50,OVCAR-4,> 100 µM (inactive)
same,GI50,OVCAR-5,> 100 µM (inactive)
same,GI50,OVCAR-8,> 100 µM (inactive)
same,GI50,PC-3,> 100 µM (inactive)
same,GI50,RPMI-8226,> 100 µM (inactive)
same,GI50,RXF 393,15.3 µM (inactive)
same,GI50,SF-268,> 100 µM (inactive)
same,GI50,SF-295,> 100 µM (inactive)
same,GI50,SF-539,75.2 µM (inactive)
same,GI50,SK-MEL-28,> 100 µM (inactive)
same,GI50,SK-MEL-2,> 100 µM (inactive)
same,GI50,SK-MEL-5,35 µM (inactive)
same,GI50,SN12C,> 100 µM (inactive)
same,GI50,SNB-19,> 100 µM (inactive)
same,GI50,SNB-75,17.2 µM (inactive)
same,GI50,SR,> 100 µM (inactive)
same,GI50,SW-620,> 100 µM (inactive)
same,GI50,T47D,> 100 µM (inactive)
same,GI50,TK-10,> 100 µM (inactive)
same,GI50,U-251,> 100 µM (inactive)
same,GI50,UACC-257,> 100 µM (inactive)
same,GI50,UACC-62,41.6 µM (inactive)
same,GI50,UO-31,> 100 µM (inactive)
